For the experiment, the system named is AML cell line MV4-11. Put plainly: Anticancer activity: Alamar Blue 3-day proliferation assay. It counts as cell-based. The settings on record: Homo sapiens, MV4-11 cells, 72h, read-out: MV4-11 EC50_μM. The protocol:
The impact of the compounds on cancer cell proliferation was determined using the AML cell line MV4-11 (ATCC) in a 3-day proliferation assay. MV4-11 cells were maintained in RPMI supplemented with 10% FBS at 37° C., 5% CO2. For compound testing, MV4-11 cells were plated in a 96-well black bottom plate at a density of 15,000 cells/well in 100 μL culture media and incubated at 37° C. overnight. Compound dilution series were prepared in DMSO via a 3-fold serial dilution from 100 μM to 0.005 μM. The DMSO dilution series were then diluted with media, with the final compound concentrations added to the wells ranging from 10 μM to 0.0005 μM. […] The fluorescent readings from the Alamar Blue assay were normalized to the DMSO treated cells and analyzed using the GraphPad Prism software with siginoidal curve fitting to obtain EC50.
(Resazurin is reduced to fluorescent resorufin, in cell work by metabolically active cells.)

SMILES strings stand for the structures.

As for `CCOC(=O)CC1N=C(c2ccc(Cl)cc2)c2c(cnn2C)-c2cn(C)c(=O)cc21` (racemic) [w, Ethyl 2-(4-(4-chlorophenyl)-3,9-dimethyl-8-oxo-3,6,8,9-tetrahydropyrazolo[3,4-c]pyrido[3,4-e]azepin-6-yl)acetate], the EC50 amounted to 26 nM.
As to `CCNC(=O)CC1N=C(c2ccc(Cl)cc2)c2cc(OC)ncc2-c2cn(C)c(=O)cc21` (racemic) [t, 2-(7-(4-chlorophenyl)-9-methoxy-2-methyl-3-oxo-3,5-dihydro-2H-dipyrido[4,3-c:3′,4′-e]azepin-5-yl)-N-ethylacetamide], the EC50 is 17 nM.
Next, `CCNC(=O)CC1N=C(CC2CC2)c2c(sc(C)c2C)-c2cn(C)c(=O)cc21` (racemic) [r, 2-(4-(cyclopropylmethyl)-2,3,9-trimethyl-8-oxo-8,9-dihydro-6H-pyrido[4,3-c]thieno[2,3-e]azepin-6-yl)-N-ethylacetamide]: 157 nM; `CCNC(=O)CC1OC(c2ccc(Cl)cc2)c2c(cnn2C)-c2cn(C)c(=O)cc21` (racemic) [ll, 2-(4-(4-chlorophenyl)-3,9-dimethyl-8-oxo-4,6,8,9-tetrahydro-3H-pyrazolo[4′,3′:5,6]oxepino[4,3-c]pyridin-6-yl)-N-ethylacetamide]: less than 0.5 nM; `CCNC(=O)CC1OC(c2ccc(Cl)cc2)c2c(sc(C)c2C)-c2cn(C)c(=O)cc21` (racemic) [bb, 2-(4-(4-chlorophenyl)-2,3,9-trimethyl-8-oxo-4,6,8,9-tetrahydrothieno[2′,3′:5,6]oxepino[4,3-c]pyridin-6-yl)-N-ethylacetamide]: less than 0.5 nM.
As for `CCNC(=O)CC1N=C(c2ccc(Cl)cc2)c2nc(C)sc2-c2cn(C)c(=O)cc21` (racemic) [m, 2-(4-(4-chlorophenyl)-2,9-dimethyl-8-oxo-8,9-dihydro-6H-pyrido[4,3-c]thiazolo[5,4-e]azepin-6-yl)-N-ethylacetamide], the EC50 was found to be 140 nM.
Then `CCOC(=O)CC1N=C(c2ccc(Cl)cc2)c2nc(C)sc2-c2cn(C)c(=O)cc21` (racemic) [l, Ethyl 2-(4-(4-chlorophenyl)-2,9-dimethyl-8-oxo-8,9-dihydro-6H-pyrido[4,3-c]thiazolo[5,4-e]azepin-6-yl)acetate], with 430 nM.
